{"source": "paper PMC7415757", "about": "“Monocrotaline-induced liver toxicity in rat predicted by a combined in vitro physiologically based kinetic modeling approach” (Archives of Toxicology, 2020)", "key": {"HepaRG cells": {"test_system": "HepaRG cells", "parameters": "method as in Louisse et al. ([2019])", "conditions": "24 h exposure; ref Louisse et al. ([2019]); cited from earlier work"}, "[1]": {"parameters": "method as in Estep et al. 1991", "conditions": "rat, iv 60 mg/kg bw, ref Estep et al. 1991, cited from earlier work"}, "[2]": {"parameters": "method as in IARC [2019]", "conditions": "possibly carcinogenic in humans; ref IARC [2019]; cited from earlier work"}, "[3]": {"experiment": "Substrate depletion in incubations with pooled rat intestinal microsomes", "assay_type": "in vitro ADME, rat (Sprague–Dawley)", "procedure": "After 5 min of pre-incubation in a shaking water bath at 37 °C, the reactions were started by the addition of 1 mM NADPH. The reactions were carried out for 1 h and 2 h for liver and intestinal microsomes, respectively. For each incubation, a corresponding control incubated in the absence of NADPH was included by adding buffer instead of NADPH. To stop the metabolic conversion, 100 µl of ice-cold methanol was added and the sample was put on ice, then centrifuged at 5000 × g for 20 min at 4 °C using a microcentrifuge (CT15RE, VWR, Leuven, Belgium). Supernatants were diluted 200 times in 90% (v/v) acetonitrile and transferred to LC–MS vials. LC–MS analysis was performed using a Shimadzu Nexera XR LC-20AD SR UPLC system in tandem with a Shimadzu LCMS-8040 mass spectrometer (Shimadzu, Kyoto, Japan). From each incubation, 1 µl of supernatant was loaded onto a Luna Omega polar C18 100A LC column (1.6 µm 100 × 2.1 mm, Phenomenex) fitted with a FP polar precolumn (Phenomenex), using a flow rate of 0.3 ml/min. The temperature was set at 40 °C and 5 °C for column and sample, respectively. The mobile phase consisted of ultrapure water (solvent A) and acetonitrile (solvent B) both containing 0.1% (v/v) formic acid. The gradient began with 100% solvent A (0% B) for 1 min to wash away unwanted salts, followed by a linear gradient from 0 to 5% B till 8 min and a further increase to 100% B in 2 min, keeping the elution at 100% B for 0.5 min, then the column was set back to the starting conditions and equlibrated for 3.4 min before the next injection. […] For all incubations, three independent replicates were performed.\nThe ratio of Vmax and Km was calculated as the in vitro catalytic efficiency (kcat) expressed in […]. […] The rat liver weight of 8.5 g and small intestine weight of 3.5 g (see Table 1) (Brown et al. [1997]) were used to scaled the in vivo kcat values to values expressed in ml/min/tissue."}, "[4]": {"parameters": "method as in Lester et al. ([2019])", "conditions": "ref Lester et al. ([2019]); cited from earlier work"}, "[5]": {"conditions": "intestine, 20.6 mg microsomal protein/g small intestine, present study"}, "[6]": {"conditions": "small intestine, PBK model code"}}, "note": "Read-outs that look alike come from different tables or passages of the source.", "data": [{"smiles": "C[C@H]1C(=O)O[C@@H]2CCN3CC=C(COC(=O)[C@](C)(O)[C@]1(C)O)[C@H]23", "note": "[Monocrotaline]", "values": [{"measurement": "cytotoxicity in HepaRG cells", "setting": "HepaRG cells", "value": "did not exhibit cytotoxicity"}, {"measurement": "Reported concentration of monocrotaline equivalents, RBCs", "setting": "[1]; 5 min", "value": 144.00, "unit": "µM"}, {"measurement": "Reported concentration of monocrotaline equivalents, plasma", "setting": "[1]; 5 min", "value": 113.00, "unit": "µM"}, {"measurement": "Reported concentration of monocrotaline equivalents, RBCs", "setting": "[1]; 15 min", "value": 113.46, "unit": "µM"}, {"measurement": "Reported concentration of monocrotaline equivalents, plasma", "setting": "[1]; 15 min", "value": 81.88, "unit": "µM"}, {"measurement": "Reported concentration of monocrotaline equivalents, RBCs", "setting": "[1]; 30 min", "value": 100.06, "unit": "µM"}, {"measurement": "Reported concentration of monocrotaline equivalents, plasma", "setting": "[1]; 30 min", "value": 67.35, "unit": "µM"}, {"measurement": "Reported concentration of monocrotaline equivalents, RBCs", "setting": "[1]; 60 min", "value": 100.13, "unit": "µM"}, {"measurement": "Reported concentration of monocrotaline equivalents, plasma", "setting": "[1]; 60 min", "value": 49.84, "unit": "µM"}, {"measurement": "Reported concentration of monocrotaline equivalents, RBCs", "setting": "[1]; 120 min", "value": 104.89, "unit": "µM"}, {"measurement": "Reported concentration of monocrotaline equivalents, plasma", "setting": "[1]; 120 min", "value": 29.65, "unit": "µM"}, {"measurement": "Reported concentration of monocrotaline equivalents, RBCs", "setting": "[1]; 180 min", "value": 99.93, "unit": "µM"}, {"measurement": "Reported concentration of monocrotaline equivalents, plasma", "setting": "[1]; 180 min", "value": 21.82, "unit": "µM"}, {"measurement": "Reported concentration of monocrotaline equivalents, RBCs", "setting": "[1]; 240 min", "value": 99.60, "unit": "µM"}, {"measurement": "Reported concentration of monocrotaline equivalents, plasma", "setting": "[1]; 240 min", "value": 17.11, "unit": "µM"}, {"measurement": "Reported concentration of monocrotaline equivalents, RBCs", "setting": "[1]; 300 min", "value": 79.81, "unit": "µM"}, {"measurement": "Reported concentration of monocrotaline equivalents, plasma", "setting": "[1]; 300 min", "value": 13.07, "unit": "µM"}, {"measurement": "Reported concentration of monocrotaline equivalents, RBCs", "setting": "[1]; 360 min", "value": 85.50, "unit": "µM"}, {"measurement": "Reported concentration of monocrotaline equivalents, plasma", "setting": "[1]; 360 min", "value": 12.16, "unit": "µM"}, {"measurement": "Reported concentration of monocrotaline equivalents, RBCs", "setting": "[1]; 420 min", "value": 81.00, "unit": "µM"}, {"measurement": "Reported concentration of monocrotaline equivalents, plasma", "setting": "[1]; 420 min", "value": 11.00, "unit": "µM"}, {"measurement": "IARC carcinogenicity category", "setting": "[2]", "value": 2, "unit": "B"}, {"measurement": "Km", "setting": "[3]; Sprague-Dawley, rat, pooled rat intestinal microsomes, pH 7.4, intestine, present study", "value": 13.4, "unit": "µM"}, {"measurement": "Scaled Vmax", "setting": "[3]; [5]", "value": 0.4, "unit": "nmol/min/g tissue"}, {"measurement": "Scaled kcat", "setting": "[3]; [5]", "value": 0.03, "unit": "ml/min/g tissue"}, {"measurement": "Vmax", "setting": "[3]; intestine, present study", "value": "0.02 nmol/min/mg microsomal protein"}, {"measurement": "Scaled kcat", "setting": "[3]; small intestine weight 3.5 g, present study", "value": 0.1, "unit": "ml/min/ tissue"}, {"measurement": "KmSiM2, affinity constant", "setting": "[3]; [6]", "value": 13.39, "unit": "µmol/L"}, {"measurement": "VmaxSiM2c, unscaled maximum rate of metabolism", "setting": "[3]; [6]", "value": 0.02, "unit": "nmol/min-1/mg protein"}, {"measurement": "metabolic stability", "setting": "[4]", "value": "metabolically stable"}]}]}
